These results are taken from patent US20160050929A1, “METHODS OF CONTROLLING NEONICOTINOID RESISTANT PESTS” (SYNGENTA PARTICIPATIONS AG, priority 2013, published 2016).

The data set concerns Orius laevigatus. Put plainly: Safety to beneficial species: test on Orius laevigatus. The data set is classed as in vivo. The settings on record: Orius laevigatus adults; for Corrected Mortality (%) 2 DAI: 2 days after infestation; for Corrected Mortality (%) 4 DAI: 4 days after infestation. Here is the method: Phaseolus vulgaris var. Fulvio (french bean) plants were reduced to one leaf. With the leaves held in a horizontal position, a track sprayer was used to treat the plants at a rate corresponding to […]. Once dry, leaf discs were collected from the plants and placed treated side up in petri dishes containing 1% water agar.
A paper triangle was added for shelter, and a suitable amount of Ephestia eggs were added as a food supply. Five (5) Orius laevigatus (predatory bug, Syngenta Bioline) adults were added and the dishes closed with a cotton filter and perforated plastic lid. The dishes were incubated in a climate chamber at 25° C., 75% relative humidity, 16:8 h light/dark regime.
Six replicates were provided for each treatment and concentration level. The number of living and dead Orius laevigatus were counted two and four days after infestation (DAI). At the day two evaluation the food supply was replenished.

As to `C#CCN1[C@@H]2CC[C@H]1C[C@](C#N)(c1cncc(C#C)c1)C2` [Compound 1.070], the “Corrected Mortality (%) 2 DAI” value was found to be 0% (rate 50 ppm), 0% (rate 100 ppm) and 0% (rate 200 ppm). The “Corrected Mortality (%) 4 DAI” value is, setting by setting: (rate 50 ppm) 0%; (rate 100 ppm) 0%; (rate 200 ppm) 0%.

For `O=[N+]([O-])NC1=NCCN1Cc1ccc(Cl)nc1` [Imidacloprid, imidacloprid], the “Corrected Mortality (%) 2 DAI” value (rate 50 ppm) is listed as 11%, the “Corrected Mortality (%) 2 DAI” value (rate 100 ppm) stood at 43% and the “Corrected Mortality (%) 2 DAI” value (rate 200 ppm) was determined as 75%. For the same molecule, the “Corrected Mortality (%) 4 DAI” value turned out to be 30% (rate 50 ppm), 65% (rate 100 ppm) and 100% (rate 200 ppm).
